Experimental data published in patent US6603023B2 (priority 1996, dated 2003).
Several values for one entry are separate records, joined by “and”; a condition that tells them apart may be missing. Equal entries are not always repeated. Entries after “also recorded” stand apart in the source; their conditions may differ. Where two headings read alike, the source gives them in different places. Marks after values point to notes of the source that are not given here.

How the values were obtained:
[1] = system: human mammary carcinoma MX-1 xenograft; parameters: Toxicity toward Nude Mice: key to the marks not given beside the values; details: for Average Tumor Size (T/C) / Average Body Weight Change: dEpo B 15 mg/kg i.v. Q2Dx5 from day 9; for Toxicity toward Nude Mice: based on body weight decrease or lethality; for Therapeutic Effect against MX-1 Xenograft: based on tumor volume reduction vs untreated control
Protocol: DMSO was used as a vehicle for epothilones. Each mouse received ≦40 μL DMSO in all experiments.
Athymic nude mice (nu/nu) were used for MX-1 and MCF-7/Adr human mammary carcinoma xenografts. Mice were obtained from Taconic Laboratory Animals and Service (Germantown, N.Y.: outbred, Swiss background).

B16 Melanoma = assay type: in vivo, B6D2F1 mice
Protocol: Body weight was determined at 0, 2, 4, 6, 8, 10 and 12 days. […] Injections were started on day 1. […] Body weight was determined at 0, 2, 4, 6, 8, 10 and 12 days. […] Injections were started on day 1.

[2] = system: A549 Human Lung Carcinoma; experiment: A549 xenograft; assay type: in vivo, nude mice; details: for Average Tumor Size, Day 11: control 96; for Average Tumor Size, Day 15: control 306; for Average Tumor Size, Day 17: control 553; for Average Body Weight, Day 7: initial weight
[3] = i.p., Cremophor-EtOH, 15 mg/kg Q2D x 5 (dose of dEpoB)
[4] = i.p., DMSO, 35 mg/kg Q2D x 5 (dose of dEpoB)
[5] = i.v. infusion 6 hr, Cremophor-EtOH, 30 mg/kg Q2D x 5 (dose of dEpoB)
[6] = i.v. infusion 24 hr, Cremophor-EtOH, 60 mg/kg Q4D x 2 (dose of dEpoB)
[7] = i.v. injection, DMSO, 15 mg/kg Q2D x 5 (dose of dEpoB)
[8] = i.v. injection, DMSO, 24 mg/kg Q2D x 5 (dose of dEpoB)
[9] = A549 Lung, dEpoB 40 mg/kg Q2D x 3, Taxol 15 mg/kg Q2D x 3
[10] = Q2D x 3, 6 hr i.v. infusion: dEpoB 40, Taxol 24 mg/kg
[11] = Q2D x 3: dEpoB 30 mg/kg 18 hr i.v. infusion, Taxol 15 mg/kg 6 hr infusion, VBL 2 and VP-16 25 mg/kg i.v. inj
[12] = dEpoB 50 mg/kg Q2D x 3, 6 hr i.v. infusion

## C/C1=C/C[C@@H](/C(C)=C/c2csc(C)n2)OC(=O)C[C@H](O)C(C)(C)C(=O)[C@H](C)[C@@H](O)[C@@H](C)CCC1 [Desoxyepothilone B, desoxyepothilone B]
[1]; day 15
  Average Tumor Size (T/C): 0.30
[1]; day 17
  Average Body Weight Change: -1.1 g
  Average Tumor Size (T/C): 0.10
[1]; day 19
  Average Body Weight Change: -2.6 g
  Average Tumor Size (T/C): 0.04
[1]; dEpoB 35 mg/kg i.p. Q2Dx5, day 19
  tumor size treated/control: 0.02
[1]; extended 40 mg/kg i.p. every other day from day 18, 5 more doses
  mice with tumor disappearing on day 28 (or day 31): 5 out of 10
[1]; extended experiment, Desoxyepo B 40 mg/kg i.p., in 5/10 mice
  Average Tumor Disappearance Duration: 44 (5/10) Day
[1]; [3]
  Toxicity toward Nude Mice: +++++
  Therapeutic Effect against MX-1 Xenograft: +
[1]; [4]
  Toxicity toward Nude Mice: ++
  Therapeutic Effect against MX-1 Xenograft: +++++
[1]; [5]
  Toxicity toward Nude Mice: ++
  Therapeutic Effect against MX-1 Xenograft: +++++
[1]; [6]
  Toxicity toward Nude Mice: +++
  Therapeutic Effect against MX-1 Xenograft: +++++
[1]; [7]
  Toxicity toward Nude Mice: +++
  Therapeutic Effect against MX-1 Xenograft: ++
[1]; [8]
  Toxicity toward Nude Mice: +++
  Therapeutic Effect against MX-1 Xenograft: ++
[1]; mouse, in vivo
  # Died of toxicity: 0/10
  Average Body Weight (change), Day 14: -2.7 g
  Average Body Weight (change), Day 16: -4.0 g
  Average Body Weight (change), Day 18: -4.5 g
  Average Body Weight (change), Day 20: -6.8 g
  Average Body Weight Change, Day 20: -1.7 g
  Average Body Weight Change, Day 22: -2.4 g
  Average Body Weight Change, Day 24: -2.4 g
  Average Body Weight Change, Day 26: -1.4 g
  Average Body Weight Change, Day 28: -1.2 g
  Average Tumor Size (T/C), Day 14: 0.19 T/C
  Average Tumor Size (T/C), Day 16: 0.10 T/C
  Average Tumor Size (T/C), Day 18: 0.03 T/C
  Died: 0/10
  Lowest Average Tumor Size (T/C): 0 T/C
  Therapeutic Effects dEpoB vs Taxol: ≅
  Tumor Disappearance: 3/3 and 5/5
  Tumor Disappearance, Day 20: 2.10^b
  Tumor Disappearance, Day 22: 2/10
  Tumor Disappearance, Day 24: 3/10
  Tumor Disappearance, Day 26: 5/10
  Tumor Disappearance, Day 28: 5/10
[1]; mouse, in vivo, ip
  Therapeutic effect Rank Order: dEpoB > Camptothecin >; also recorded: dEpoB > Adriamycin > Taxol ®
[1]; mouse, in vivo, iv
  Therapeutic effect Rank Order: Taxol ® ≈ dEpoB
[1]; surviving mice 4, 5, 9, 35 mg/kg on day 8-16, 40 mg/kg on day 18-26, then no treatment
  Tumor Size, individual mice, Day 60: 0 mm^3 (2×) and 4 mm^3
B16 Melanoma; 20 mg/kg QD1-4,7-8, day 11
  Average Tumor Volume (T/C): 0.33
B16 Melanoma; 20 mg/kg QDx6 from day 1 (FIG. 44)
  mice died: 0 of 8
[2]; A549, i.v. infusion
  Therapeutic effect Rank Order: Taxol ®, dEpoB, VBL > VP-16
[2]; [9]
  Lowest Average Tumor Size (T/C): 0.01 T/C
  Tumor Disappearance: 1/3
[2]; A549 Lung, dEpoB 40 mg/kg Q2D x 3 vs Taxol 15 mg/kg Q2D x 3
  Therapeutic Effects dEpoB vs Taxol: ≅
[2]; [10]
  Average Body Weight (change), Day 11: -1.6 g
  Average Body Weight (change), Day 13: -3.2 g
  Average Body Weight (change), Day 15: -2.4 g
  Tumor Disappearance: 1/3
  Average Tumor Size, Day 11: 31 mm^3
  Average Tumor Size, Day 15: 4 mm^3
  Average Tumor Size, Day 17: 4 mm^3
  Average Body Weight, Day 7: 27.8 g
[2]; [11]
  Average Body Weight (change), Day 11: -2.0 g
  Average Body Weight (change), Day 13: -5.8 g
  Average Body Weight (change), Day 15: -5.6 g
  Tumor Disappearance: 1/3
  Average Tumor Size, Day 11: 17 mm^3
  Average Tumor Size, Day 15: 26 mm^3
  Average Tumor Size, Day 17: 21 mm^3
  Average Body Weight, Day 7: 29.3 g
[2]; [12]
  Average Body Weight (change), Day 11: -2.0 g
  Average Body Weight (change), Day 13: -3.2 g
  Average Body Weight (change), Day 15: -2.5 g
  Tumor Disappearance: 1/2
  Average Tumor Size, Day 11: 33 mm^3
  Average Tumor Size, Day 15: 6 mm^3
  Average Tumor Size, Day 17: 6 mm^3
  Average Body Weight, Day 7: 27.1 g
[2]; dEpoB 50 mg/kg Q2D x 3, 6 hr i.v. infusion, control 128
  Average Tumor Size, Day 13: 19 mm^3
[2]; mouse, in vivo
  Average Tumor Size, Day 13: 21 mm^3 and 19 mm^3
